Like-named read-outs stand apart in the source and are kept apart here.
System: Wheat and Barley and weed species
Experiment: Post-Emergent Test III: postemergent herbicidal activity in wheat and barley, visual rating after 21 d and probit GR20/GR50/GR80/GR90 (Tables 9-13)
Type: in vivo
Conditions: for GR20 HORVS / GR20 TRZAS: growth reduction of 20%; for pest or weed control at 35 g/ha / pest or weed control at 70 g/ha / pest or weed control at 140 g/ha / pest or weed control at 17.5 g/ha: post-emergence, 504 h
Text: Herbicidal evaluations were made visually on a scale of 0 to 100 where 0 represents no activity and 100 represents complete plant death.
Seeds of the desired test plant species were planted in Sun Gro MetroMix® 306 planting mixture, which typically has a pH of 6.0 to 6.8 and an organic matter content of about 30 percent, in plastic pots with a surface area of 103.2 square centimeters (cm^2). When required to ensure good germination and healthy plants, a fungicide treatment and/or other chemical or physical treatment was applied. The plants were grown for 7-36 days (d) in a greenhouse with an approximate 14 hour (h) photoperiod which was maintained at about 18° C. during the day and 17° C. during the night. Nutrients and water were added on a regular basis and supplemental lighting was provided with overhead metal halide 1000-Watt lamps as necessary. The plants were employed for testing when they reached the second or third true leaf stage.
A weighed amount, determined by the highest rate to be tested, of each test compound was placed in a 25 mL glass vial and was dissolved in 4 mL of a 97:3 v/v mixture of acetone and DMSO to obtain concentrated stock solutions. […] The concentrated stock solutions obtained were diluted with 20 mL of an aqueous mixture containing acetone, water, isopropyl alcohol, DMSO, Agri-Dex crop oil concentrate, and X-77 surfactant in a 48:39:10:1.5:1.5:0.02 v/v ratio to obtain spray solutions containing the highest application rates. Additional application rates were obtained by serial dilution of 12 mL of the high rate solution into a solution containing 2 mL of a 97:3 v/v mixture of acetone and DMSO and 10 mL of an aqueous mixture containing acetone, water, isopropyl alcohol, DMSO, Agri-Dex crop oil concentrate, and X-77 surfactant in a 48:39:10:1.5:1.5:0.02 v/v ratio to obtain ½×, ¼×, ⅛× and 1/16× rates of the high rate. Compound requirements are based upon a 12 mL application volume at a rate of 187 liters per hectare (L/ha). Formulated compounds were applied to the plant material with an overhead Mandel track sprayer equipped with 8002E nozzles calibrated to deliver 187 L/ha over an application area of 0.503 square meters at a spray height of 18 inches (43 cm) above the average plant canopy height. Control plants were sprayed in the same manner with the solvent blank.
The treated plants and control plants were placed in a greenhouse as described above and watered by subirrigation to prevent wash-off of the test compounds. After 21 d, the condition of the test plants as compared with that of the untreated plants was determined visually and scored on a scale of 0 to 100 percent where 0 corresponds to no injury and 100 corresponds to complete kill and are presented as indicated in Table 4.
By applying the well-accepted probit analysis as described by J. Berkson in Journal of the American Statistical Society, 48, 565 (1953) and by D. Finney in “Probit Analysis” Cambridge University Press (1952), herbicidal injury of a specific compound at various rates can be used to calculate GR20, GR50, GR80 and GR90 values, which are defined as growth reduction factors that correspond to the effective dose of herbicide required to provide plant growth reduction (GR) of 20 percent, 50 percent, 80 percent and 90 percent, respectively. Probit analysis was applied to data collected from multiple dose rates of individual compounds utilizing the procedures explained in the following examples. The data for some of the dose rates and analysis of all of the dose rates are captured in the following tables.

[1] = ALOMY black-grass (Alopecurus myosuroides), growth reduction of 50%, probit analysis
[2] = ALOMY black-grass (Alopecurus myosuroides), growth reduction of 80%, probit analysis
[3] = ALOMY black-grass (Alopecurus myosuroides), growth reduction of 90%, probit analysis
[4] = APESV bentgrass (Apera spica-venti), growth reduction of 50%, probit analysis
[5] = APESV bentgrass (Apera spica-venti), growth reduction of 80%, probit analysis
[6] = APESV bentgrass (Apera spica-venti), growth reduction of 90%, probit analysis
[7] = HORVS barley, spring (crop), probit analysis
[8] = Hordeum vulgare, HORVS barley, spring (crop), 35 g ai/ha, read-out: Visual Growth Reduction (%) 21 Days After Application HORVS
[9] = Hordeum vulgare, HORVS barley, spring (crop), 70 g ai/ha, read-out: Visual Growth Reduction (%) 21 Days After Application HORVS
[10] = LOLSS ryegrass, growth reduction of 50%, probit analysis
[11] = LOLSS ryegrass, growth reduction of 80%, probit analysis
[12] = LOLSS ryegrass, growth reduction of 90%, probit analysis
[13] = SETVI green foxtail (Setaria viridis), growth reduction of 50%, probit analysis
[14] = SETVI green foxtail (Setaria viridis), growth reduction of 80%, probit analysis
[15] = SETVI green foxtail (Setaria viridis), growth reduction of 90%, probit analysis
[16] = TRZAS wheat, spring (crop), probit analysis
[17] = Triticum aestivum, TRZAS wheat, spring (crop), 35 g ai/ha, read-out: Visual Growth Reduction (%) 21 Days After Application TRZAS
[18] = Triticum aestivum, TRZAS wheat, spring (crop), 70 g ai/ha, read-out: Visual Growth Reduction (%) 21 Days After Application TRZAS
[19] = ALOMY black-grass (Alopecurus myosuroides), 35 g ai/ha, read-out: Visual Growth Reduction (%) 21 Days After Application ALOMY
[20] = ALOMY black-grass (Alopecurus myosuroides), 70 g ai/ha, read-out: Visual Growth Reduction (%) 21 Days After Application ALOMY
[21] = APESV bentgrass (Apera spica-venti), 35 g ai/ha, read-out: Visual Growth Reduction (%) 21 Days After Application APESV
[22] = APESV bentgrass (Apera spica-venti), 70 g ai/ha, read-out: Visual Growth Reduction (%) 21 Days After Application APESV
[23] = LOLSS ryegrass, 35 g ai/ha, read-out: Visual Growth Reduction (%) 21 Days After Application LOLSS
[24] = LOLSS ryegrass, 70 g ai/ha, read-out: Visual Growth Reduction (%) 21 Days After Application LOLSS
[25] = SETVI green foxtail (Setaria viridis), 35 g ai/ha, read-out: Visual Growth Reduction (%) 21 Days After Application SETVI
[26] = SETVI green foxtail (Setaria viridis), 70 g ai/ha, read-out: Visual Growth Reduction (%) 21 Days After Application SETVI

COC(=O)c1nc(-c2ccc3c(c2F)OC(F)(F)O3)c(F)c(N)c1Cl [Compound 10]
GR50 ALOMY [1]: 52 g ai/ha
GR80 ALOMY [2]: 109 g ai/ha
GR90 ALOMY [3]: >140 g ai/ha
GR50 APESV [4]: 65 g ai/ha
GR80 APESV [5]: 106 g ai/ha
GR90 APESV [6]: 138 g ai/ha
GR20 HORVS [7]: 11 g ai/ha
pest or weed control at 35 g/ha [8]: 60 to 74%
pest or weed control at 70 g/ha [9]: 75 to 84%
pest or weed control at 140 g/ha (Hordeum vulgare, HORVS barley, spring (crop), 140 g ai/ha, read-out: Visual Growth Reduction (%) 21 Days After Application HORVS): 85 to 94%
Visual Growth Reduction (%) 21 Days After Application KCHSC (KCHSC kochia (Kochia scoparia), 35 g ai/ha): G (0-29)
Visual Growth Reduction (%) 21 Days After Application KCHSC (KCHSC kochia (Kochia scoparia), 70 g ai/ha): D (60-74)
Visual Growth Reduction (%) 21 Days After Application KCHSC (KCHSC kochia (Kochia scoparia), 140 g ai/ha): C (75-84)
GR50 KCHSC (KCHSC kochia (Kochia scoparia), growth reduction of 50%, probit analysis): 78 g ai/ha
GR80 KCHSC (KCHSC kochia (Kochia scoparia), growth reduction of 80%, probit analysis): 117 g ai/ha
GR90 KCHSC (KCHSC kochia (Kochia scoparia), growth reduction of 90%, probit analysis): >140 g ai/ha
GR50 LOLSS [10]: 93 g ai/ha
GR80 LOLSS [11]: >140 g ai/ha
GR90 LOLSS [12]: >140 g ai/ha
GR50 SETVI [13]: 36 g ai/ha
GR80 SETVI [14]: 63 g ai/ha
GR90 SETVI [15]: 85 g ai/ha
GR20 TRZAS [16]: 4 g ai/ha
pest or weed control at 35 g/ha [17]: 60 to 74%
pest or weed control at 70 g/ha [18]: 85 to 94%
pest or weed control at 140 g/ha (Triticum aestivum, TRZAS wheat, spring (crop), 140 g ai/ha, read-out: Visual Growth Reduction (%) 21 Days After Application TRZAS): 85 to 94%
pest or weed control at 35 g/ha [19]: 30 to 44%
pest or weed control at 70 g/ha [20]: 45 to 59%
pest or weed control at 140 g/ha (ALOMY black-grass (Alopecurus myosuroides), 140 g ai/ha, read-out: Visual Growth Reduction (%) 21 Days After Application ALOMY): 85 to 94%
pest or weed control at 35 g/ha [21]: 0 to 29%
pest or weed control at 70 g/ha [22]: 45 to 59%
pest or weed control at 140 g/ha (APESV bentgrass (Apera spica-venti), 140 g ai/ha, read-out: Visual Growth Reduction (%) 21 Days After Application APESV): 85 to 94%
pest or weed control at 35 g/ha [23]: 0 to 29%
pest or weed control at 70 g/ha [24]: 30 to 44%
pest or weed control at 140 g/ha (LOLSS ryegrass, 140 g ai/ha, read-out: Visual Growth Reduction (%) 21 Days After Application LOLSS): 60 to 74%
pest or weed control at 35 g/ha [25]: 60 to 74%
pest or weed control at 70 g/ha [26]: 75 to 84%
pest or weed control at 140 g/ha (SETVI green foxtail (Setaria viridis), 140 g ai/ha, read-out: Visual Growth Reduction (%) 21 Days After Application SETVI): 95 to 100%

Nc1c(F)c(-c2ccc3c(c2F)OC(F)(F)O3)nc(C(=O)O)c1Cl [Compound 11]
GR50 ALOMY [1]: 41 g ai/ha
GR80 ALOMY [2]: >70 g ai/ha
GR90 ALOMY [3]: >70 g ai/ha
GR50 APESV [4]: 25 g ai/ha
GR80 APESV [5]: 52 g ai/ha
GR90 APESV [6]: >70 g ai/ha
GR20 HORVS [7]: 3 g ai/ha
pest or weed control at 17.5 g/ha (Hordeum vulgare, HORVS barley, spring (crop), 17.5 g ai/ha, read-out: Visual Growth Reduction (%) 21 Days After Application HORVS): 60 to 74%
pest or weed control at 35 g/ha [8]: 60 to 74%
pest or weed control at 70 g/ha [9]: 85 to 94%
GR50 LOLSS [10]: 31 g ai/ha
GR80 LOLSS [11]: 62 g ai/ha
GR90 LOLSS [12]: >70 g ai/ha
Visual Growth Reduction (%) 21 Days After Application MATCH (MATCH wild chamomile (Matricaria recutita L.), 17.5 g ai/ha): G (0-29)
Visual Growth Reduction (%) 21 Days After Application MATCH (MATCH wild chamomile (Matricaria recutita L.), 35 g ai/ha): F (30-44)
Visual Growth Reduction (%) 21 Days After Application MATCH (MATCH wild chamomile (Matricaria recutita L.), 70 g ai/ha): E (45-59)
GR50 MATCH (MATCH wild chamomile (Matricaria recutita L.), growth reduction of 50%, probit analysis): 65 g ai/ha
GR80 MATCH (MATCH wild chamomile (Matricaria recutita L.), growth reduction of 80%, probit analysis): >70 g ai/ha
GR90 MATCH (MATCH wild chamomile (Matricaria recutita L.), growth reduction of 90%, probit analysis): >70 g ai/ha
GR50 SETVI [13]: 18 g ai/ha
GR80 SETVI [14]: 37 g ai/ha
GR90 SETVI [15]: 53 g ai/ha
GR20 TRZAS [16]: 0.12 g ai/ha
pest or weed control at 17.5 g/ha (Triticum aestivum, TRZAS wheat, spring (crop), 17.5 g ai/ha, read-out: Visual Growth Reduction (%) 21 Days After Application TRZAS): 75 to 84%
pest or weed control at 35 g/ha [17]: 85 to 94%
pest or weed control at 70 g/ha [18]: 85 to 94%
Visual Growth Reduction (%) 21 Days After Application VERPE (VERPE bird's-eye speedwell (veronica persica), 17.5 g ai/ha): E (45-59)
Visual Growth Reduction (%) 21 Days After Application VERPE (VERPE bird's-eye speedwell (veronica persica), 35 g ai/ha): D (60-74)
Visual Growth Reduction (%) 21 Days After Application VERPE (VERPE bird's-eye speedwell (veronica persica), 70 g ai/ha): B (85-94)
GR50 VERPE (VERPE bird's-eye speedwell (veronica persica), growth reduction of 50%, probit analysis): 17 g ai/ha
GR80 VERPE (VERPE bird's-eye speedwell (veronica persica), growth reduction of 80%, probit analysis): 41 g ai/ha
GR90 VERPE (VERPE bird's-eye speedwell (veronica persica), growth reduction of 90%, probit analysis): 65 g ai/ha
pest or weed control at 17.5 g/ha (ALOMY black-grass (Alopecurus myosuroides), 17.5 g ai/ha, read-out: Visual Growth Reduction (%) 21 Days After Application ALOMY): 30 to 44%
pest or weed control at 35 g/ha [19]: 45 to 59%
pest or weed control at 70 g/ha [20]: 60 to 74%
pest or weed control at 17.5 g/ha (APESV bentgrass (Apera spica-venti), 17.5 g ai/ha, read-out: Visual Growth Reduction (%) 21 Days After Application APESV): 30 to 44%
pest or weed control at 35 g/ha [21]: 60 to 74%
pest or weed control at 70 g/ha [22]: 85 to 94%
pest or weed control at 17.5 g/ha (LOLSS ryegrass, 17.5 g ai/ha, read-out: Visual Growth Reduction (%) 21 Days After Application LOLSS): 45 to 59%
pest or weed control at 35 g/ha [23]: 60 to 74%
pest or weed control at 70 g/ha [24]: 75 to 84%
pest or weed control at 17.5 g/ha (SETVI green foxtail (Setaria viridis), 17.5 g ai/ha, read-out: Visual Growth Reduction (%) 21 Days After Application SETVI): 45 to 59%
pest or weed control at 35 g/ha [25]: 75 to 84%
pest or weed control at 70 g/ha [26]: 85 to 94%
